# In patent US20250025443A1, “COMPOUNDS AND METHODS FOR TREATING CORONA VIRUSES” (CLEAR CREEK BIO, INC., priority 2021, published 2025):
# Biological target: SARS-CoV-2 Papain-Like Protease (PLpro) (Severe acute respiratory syndrome coronavirus 2 (2019-nCoV) (SARS-CoV-2), UniProt P0DTD1)
# Assay: biochemical
# Details: PLpro enzymatic fluorescence assay; class symbols; read-out: PLpro IC50
row,SMILES,IC50
1,"Cc1ccc(OC[C@@H]2CCN2C)cc1C(=O)NC1(c2cc(-c3ncn4ccccc34)cc3ncccc23)CC1 [Compound 736, (S)—N-(1-(7-(Imidazo[1,5-a]pyridin-1-yl)quinolin-5-yl)cyclopropyl)-2-methyl-5-((1-methylazetidin-2-yl)methoxy)benzamide]",< 100 nM
2,"C=CCc1cc(C2(NC(=O)c3cc(OCC4CCN4C)ccc3C)CC2)c2ccccc2c1 (stereo not drawn) [Compound 503, N-(1-(3-Allylnaphthalen-1-yl)cyclopropyl)-2-methyl-5-((1-methylazetidin-2-yl)methoxy)benzamide]",< 100 nM
3,"Cc1ccc(OC[C@@H]2CCN2C)cc1C(=O)NC1(c2cc(-c3cnn(C)c3)cc3ncccc23)CC1 [Compound 670, (S)-2-Methyl-N-(1-(7-(1-methyl-1H-pyrazol-4-yl)quinolin-5-yl)cyclopropyl)-5-((1-methylazetidin-2-yl)methoxy)benzamide]",< 100 nM
4,Cc1ccc([N+](=O)[O-])cc1CNC(c1cccc2ccccc12)C1CCOC1 (stereo not drawn) [Compound 123],> 5000 nM
5,"Cc1ccc(OC[C@@H]2CCN2)cc1C(=O)NC1(c2cc(-c3cncc(N4CCOCC4)c3)cc3ncccc23)CC1 [Compound 689, (S)-5-(Azetidin-2-ylmethoxy)-2-methyl-N-(1-(7-(5-morpholinopyridin-3-yl)quinolin-5-yl)cyclopropyl)benzamide]",< 100 nM
6,"Cc1ccc(OC[C@@H]2CCN2C)cc1C(=O)NC1(c2cc(-c3ccnn3C)cc3ncccc23)CC1 [Compound 578, (S)-2-Methyl-N-(1-(7-(1-methyl-1H-pyrazol-5-yl)quinolin-5-yl)cyclopropyl)-5-((1-methylazetidin-2-yl)methoxy)benzamide]",< 100 nM
7,"Cc1ccc(OC[C@@H]2CCN2C)cc1C(=O)NC1(c2cc(-c3ccn(C)n3)cc3ncccc23)CC1 [Compound 582, (S)-2-Methyl-N-(1-(7-(1-methyl-1H-pyrazol-3-yl)quinolin-5-yl)cyclopropyl)-5-((1-methylazetidin-2-yl)methoxy)benzamide]",< 100 nM
8,"C=Cc1cc(C2(NC(=O)c3cc(OC[C@H](C)N)ccc3C)CC2)c2cccnc2c1 [Compound 735, (S)-5-(2-Aminopropoxy)-2-methyl-N-(1-(7-vinylquinolin-5-yl)cyclopropyl)benzamide]",< 100 nM

# Same assay, conditions: SARS-CoV-2 PLpro enzymatic fluorescence assay; read-out: PLpro IC50
row,SMILES,IC50
1,"Cc1ccc(OCC2CCN2C)cc1C(=O)NC1(c2cccc3c2OCCO3)CC1 (stereo not drawn) [Compound 432, N-(1-(2,3-Dihydrobenzo[b][1,4]dioxin-5-yl)cyclopropyl)-2-methyl-5-((1-methylazetidin-2-yl)methoxy)benzamide]",100 to 1000 nM
2,"C=C(C)c1cc(C2(NC(=O)c3cc(OC[C@@H]4CCN4C)ccc3C)CC2)c2cccnc2c1 [Compound 568, (S)-2-Methyl-5-((1-methylazetidin-2-yl)methoxy)-N-(1-(7-(prop-1-en-2-yl)quinolin-5-yl)cyclopropyl)benzamide]",< 100 nM
3,"Cc1cc2cc(CN)oc2cc1C(=O)NC1(c2cccc3ccccc23)CC1 [Compound 197, 2-(Aminomethyl)-5-methyl-N-(1-(naphthalen-1-yl)cyclopropyl)benzofuran-6-carboxamide]",< 100 nM
4,"Cc1ccc(OCC2CCN2C)cc1C(=O)NC1(c2cc(N(C)C)cc3ccccc23)CC1 (stereo not drawn) [Compound 495, N-(1-(3-(Dimethylamino)naphthalen-1-yl)cyclopropyl)-2-methyl-5-((1-methylazetidin-2-yl)methoxy)benzamide]",< 100 nM
5,"Cc1cc2cc(CN)[nH]c2cc1C(=O)NC1(c2ccc(-c3ccccc3)cc2)CC1 [Compound 244, N-(1-([1,1′-Biphenyl]-4-yl)cyclopropyl)-2-(aminomethyl)-5-methyl-1H-indole-6-carboxamide]",> 5000 nM
6,"Cc1ccc(OCC(C)N)cc1C(=O)NC1(c2cccc3ccccc23)CC1 (stereo not drawn) [Compound 324, 5-(2-Aminopropoxy)-2-methyl-N-(1-(naphthalen-1-yl)cyclopropyl)benzamide]",< 100 nM
7,"Cc1cnc(OCCN(C)C)nc1C(=O)NC1(c2cccc3ccccc23)CC1 [Compound 350, 2-(2-(Dimethylamino)ethoxy)-5-methyl-N-(1-(naphthalen-1-yl)cyclopropyl)pyrimidine-4-carboxamide]",1000 to 5000 nM
